Structures are written as SMILES. Values after ≈ are worked out from the molar mass of the structure shown. Square brackets hold non-standard residues; d marks the D form. Peptide text beside a SMILES is read from it. * marks the point of attachment. Palmitoyl = CCCCCCCCCCCCCCCC(=O)*; Lauroyl = CCCCCCCCCCCC(=O)* Some results are limits rather than exact numbers.

Our source for the MIC values is ChEMBL document CHEMBL1649185, “Antibacterial activity of ultrashort cationic lipo-beta-peptides” (2009).

Holding throughout (type): functional
The test system of experiment [1] is Staphylococcus aureus. Briefly: Antimicrobial activity against Staphylococcus aureus ATCC 29213 […].
For experiment [2], the system named is Staphylococcus aureus. Briefly: Antimicrobial activity against methicillin-resistant Staphylococcus aureus ATCC 33592 […].
Experiment [3] has as its system Staphylococcus epidermidis. Briefly: Antimicrobial activity against Staphylococcus epidermidis ATCC 14990 […].
Experiment [4] concerns Staphylococcus epidermidis. Briefly: Antimicrobial activity against methicillin-resistant Staphylococcus epidermidis CAN-ICU 61589 […].
A further experiment deals with Enterococcus faecalis. Briefly: Antimicrobial activity against Enterococcus faecalis ATCC 29212 […].
In another experiment the test system is Enterococcus faecium. Briefly: Antimicrobial activity against Enterococcus faecium ATCC 27270 […].
In a further experiment the test system is Streptococcus pneumoniae. Briefly: Antimicrobial activity against Streptococcus pneumoniae ATCC 49619 […].
For experiment [5], the system named is Escherichia coli. Briefly: Antimicrobial activity against Escherichia coli ATCC 25922 by […].
Experiment [6] concerns Escherichia coli. Briefly: Antimicrobial activity against Escherichia coli CAN-ICU 61714 […].
Experiment [7] deals with Escherichia coli. Briefly: Antimicrobial activity against Escherichia coli CAN-ICU 63074 […].
Experiment [8] deals with Pseudomonas aeruginosa. Briefly: Antimicrobial activity against Pseudomonas aeruginosa ATCC 27853 […].
Experiment [9] relates to Pseudomonas aeruginosa. Briefly: Antimicrobial activity against Pseudomonas aeruginosa CAN-ICU 62308 […].
For experiment [10], the system named is Stenotrophomonas maltophilia. Briefly: Antimicrobial activity against Stenotrophomonas maltophilia CAN-ICU 62584 […].
For a further experiment, the system named is Acinetobacter baumannii. Briefly: Antimicrobial activity against Acinetobacter baumannii CAN-ICU 63169 by […].
A further experiment relates to Klebsiella pneumoniae. Briefly: Antimicrobial activity against Klebsiella pneumoniae ATCC 13883 […].

Consider `CCCCCCCCCCCCCCCC(=O)N[C@H](CCCN)CC(=O)N[C@H](CCCN)CC(=O)N[C@H](CCCN)CC(=O)N[C@H](CCCN)CC(=O)O`, for which the minimal inhibitory concentration (MIC) in the experiment on Staphylococcus aureus [1] was determined as 16 µg/mL (≈ 20.8 µM); in the experiment with Staphylococcus aureus [2], 16 µg/mL (≈ 20.8 µM); in experiment [3], 4 µg/mL (≈ 5.2 µM); in experiment [4], 4 µg/mL (≈ 5.2 µM); against Enterococcus faecalis, 32 µg/mL (≈ 41.6 µM); against Enterococcus faecium, 16 µg/mL (≈ 20.8 µM). The minimum inhibitory concentration (MIC) is 128 µg/mL (≈ 166 µM) against Streptococcus pneumoniae; 16 µg/mL (≈ 20.8 µM) with Escherichia coli [5]; 32 µg/mL (≈ 41.6 µM) in the experiment with Escherichia coli [6]; 32 µg/mL (≈ 41.6 µM) with Escherichia coli [7]; 64 µg/mL (≈ 83.2 µM) against Pseudomonas aeruginosa [8]; 128 µg/mL (≈ 166 µM) in the experiment with Pseudomonas aeruginosa [9]. The MIC was 256 µg/mL (≈ 333 µM) in experiment [10], 256 µg/mL (≈ 333 µM) in the experiment on Acinetobacter baumannii and 128 µg/mL (≈ 166 µM) with Klebsiella pneumoniae.

Turning to `CCCCCCCCCCCCCCCC(=O)N[C@@H](CCCCN)C(=O)NCC(=O)NCC(=O)N[C@H](CCCCN)C(=O)O`, the MIC in the experiment on Staphylococcus aureus [1] stood at 16 µg/mL (≈ 25.5 µM); with Staphylococcus aureus [2], 16 µg/mL (≈ 25.5 µM); in experiment [3], 8 µg/mL (≈ 12.8 µM); in experiment [4], 8 µg/mL (≈ 12.8 µM); with Enterococcus faecalis, 16 µg/mL (≈ 25.5 µM); against Enterococcus faecium, 16 µg/mL (≈ 25.5 µM). Moreover, the MIC came out at 128 µg/mL (≈ 204 µM) against Streptococcus pneumoniae; 16 µg/mL (≈ 25.5 µM) in the experiment with Escherichia coli [5]; 64 µg/mL (≈ 102 µM) in the experiment on Escherichia coli [6]; 16 µg/mL (≈ 25.5 µM) against Escherichia coli [7]; 64 µg/mL (≈ 102 µM) in the experiment on Pseudomonas aeruginosa [8]; 64 µg/mL (≈ 102 µM) against Pseudomonas aeruginosa [9]. The MIC (in experiment [10]; in the experiment with Acinetobacter baumannii; in the experiment with Klebsiella pneumoniae) was 64 µg/mL (≈ 102 µM) in each case.

With `CCCCCCCCCCCCCCCC(=O)N[C@@H](CCCCN)C(=O)N[C@@H](CCCCN)C(=O)N[C@H](CCCCN)C(=O)N[C@@H](CCCCN)C(=O)O` (Palmitoyl-KK[dK]K-OH), the minimum inhibitory concentration (MIC) stood at 16 µg/mL (≈ 20.8 µM) against Staphylococcus aureus [1]; 16 µg/mL (≈ 20.8 µM) with Staphylococcus aureus [2]; 4 µg/mL (≈ 5.2 µM) in [3]; 8 µg/mL (≈ 10.4 µM) in [4]; 32 µg/mL (≈ 41.6 µM) with Enterococcus faecalis; 16 µg/mL (≈ 20.8 µM) against Enterococcus faecium. The MIC was greater than 32 µg/mL against Streptococcus pneumoniae; 32 µg/mL (≈ 41.6 µM) in the experiment on Escherichia coli [5]; 32 µg/mL (≈ 41.6 µM) with Escherichia coli [6]; 32 µg/mL (≈ 41.6 µM) against Escherichia coli [7]; 32 µg/mL (≈ 41.6 µM) with Pseudomonas aeruginosa [8]; 256 µg/mL (≈ 333 µM) in the experiment with Pseudomonas aeruginosa [9]. The MIC (in [10]; against Acinetobacter baumannii; in the experiment with Klebsiella pneumoniae) was 256 µg/mL (≈ 333 µM) in each case.

Take `CCCCCCCCCCCC(=O)N[C@@H](CCCCN)C(=O)N[C@@H](CC(C)C)C(=O)N[C@@H](CC(C)C)C(=O)N[C@@H](CCCCN)C(=O)O` (Lauroyl-KLLK-OH): the minimal inhibitory concentration (MIC) against Staphylococcus aureus [1] was 16 µg/mL (≈ 23.4 µM); against Staphylococcus aureus [2], 16 µg/mL (≈ 23.4 µM); in [3] it was 16 µg/mL (≈ 23.4 µM); in experiment [4], 16 µg/mL (≈ 23.4 µM); in the experiment with Enterococcus faecalis, 32 µg/mL (≈ 46.9 µM); in the experiment on Enterococcus faecium, 16 µg/mL (≈ 23.4 µM). Further, the MIC with Streptococcus pneumoniae, against Escherichia coli [5], in the experiment with Escherichia coli [6], against Escherichia coli [7], in the experiment with Pseudomonas aeruginosa [8] and in the experiment on Pseudomonas aeruginosa [9] was 128 µg/mL (≈ 187 µM) throughout. For the same molecule, the figures for the minimum inhibitory concentration (MIC) (in experiment [10]; in the experiment on Acinetobacter baumannii; with Klebsiella pneumoniae) were greater than 256 µg/mL, greater than 64 µg/mL and 256 µg/mL (≈ 375 µM), respectively.

On to `CCCCCCCCCCCCCCCC(=O)N[C@H](CCCN)CC(=O)NCC(=O)NCC(=O)N[C@H](CCCN)CC(=O)O`, for which the minimal inhibitory concentration (MIC) worked out at 16 µg/mL (≈ 25.5 µM) in the experiment with Staphylococcus aureus [1]; 32 µg/mL (≈ 51 µM) with Staphylococcus aureus [2]; 8 µg/mL (≈ 12.8 µM) in experiment [3]; 16 µg/mL (≈ 25.5 µM) in experiment [4]; 32 µg/mL (≈ 51 µM) against Enterococcus faecalis; 32 µg/mL (≈ 51 µM) against Enterococcus faecium. Also, the minimum inhibitory concentration (MIC) against Streptococcus pneumoniae is 128 µg/mL (≈ 204 µM); in the experiment with Escherichia coli [5], 32 µg/mL (≈ 51 µM); in the experiment on Escherichia coli [6], 32 µg/mL (≈ 51 µM); with Escherichia coli [7], 32 µg/mL (≈ 51 µM); in the experiment with Pseudomonas aeruginosa [8], 64 µg/mL (≈ 102 µM); in the experiment on Pseudomonas aeruginosa [9] it was greater than 64 µg/mL. Also, the minimum inhibitory concentration (MIC) in [10] was determined as 256 µg/mL (≈ 408 µM); against Acinetobacter baumannii, 128 µg/mL (≈ 204 µM); against Klebsiella pneumoniae, 128 µg/mL (≈ 204 µM).

On to `CCCCCCCCCCCCCCCC(=O)N[C@H](CCCN)CC(=O)NCCC(=O)NCCC(=O)N[C@H](CCCN)CC(=O)O`, for which the MIC in the experiment with Staphylococcus aureus [1] is 64 µg/mL (≈ 97.7 µM); against Staphylococcus aureus [2], 32 µg/mL (≈ 48.9 µM); in [3], 8 µg/mL (≈ 12.2 µM); in [4], 16 µg/mL (≈ 24.4 µM); in the experiment on Enterococcus faecalis, 32 µg/mL (≈ 48.9 µM); against Enterococcus faecium, 32 µg/mL (≈ 48.9 µM). For the same molecule, the MIC against Streptococcus pneumoniae is greater than 64 µg/mL; with Escherichia coli [5] it was 64 µg/mL (≈ 97.7 µM); against Escherichia coli [6], 64 µg/mL (≈ 97.7 µM); with Escherichia coli [7] it was 64 µg/mL (≈ 97.7 µM); in the experiment on Pseudomonas aeruginosa [8], 256 µg/mL (≈ 391 µM); against Pseudomonas aeruginosa [9] it was 128 µg/mL (≈ 195 µM). Further, the MIC in [10] is greater than 128 µg/mL; against Acinetobacter baumannii, 256 µg/mL (≈ 391 µM); in the experiment with Klebsiella pneumoniae it was greater than 128 µg/mL.

In general, MIC refers to the least concentration at which growth counts as inhibited. The low end stands for inhibition by little substance, the high end for a need for much substance.
